In patent publication US4927919A, “Chartreusin derivatives and salts thereof” (Ishihara Sangyo Kaisha, Ltd., priority 1985, dated 1990):
Structures can show the parent of a compound that is named as a salt. Where two headings read alike, the source gives them in different places.

Legend:
[1] = system: P-388 leukemia cells; test: Antitumor activity against P-388 leukemia cells (i.p. implanted, i.v. drug); format: in vivo, BDF1 mice; settings: Mus musculus, P388, iv, 720 h, read-out: T/C of MST; for response vs control in vivo at 20 mg/kg/day: dose b': 20 mg/kg/d × 2 (days 1, 5); for response vs control in vivo at 40 mg/kg/day: dose c': 40 mg/kg/d × 2 (days 1, 5); for response vs control in vivo at 60 mg/kg: dose e: 60 mg/kg/d × 3 (days 1, 5, 9)
Experimental: BDF1 mice were implanted intraperitoneally with P-388 leukemia cells at a rate of 1×10^6 cells/mouse, and each drug to be tested was administered intravenously on the first, fifth and ninth days, or on the first and fifth days after the implantation. […] The T/C (%) was calculated based on the following equation: [formula]
The drugs tested were as follows: solutions prepared by dissolving each of compound Nos. 34, 36 and 43 to 46 in physiological saline; suspension or solutions prepared by dissolving each of compound Nos. 35, 38 and 49 to 55 in dimethylacetamide, followed by adding thereto a small amount of a surface active agent (e.g., Tween-80) and then physiological saline; and suspension or solutions prepared by mixing each of the other compounds and a small amount of a surface active agent (e.g., Tween-80), followed by adding thereto physiological saline.

[2] = Acute toxicity (LD50, single intravenous administration); set-up: species or system day mice; settings: mouse, in vivo, mice, single i.v.
Excerpt: In Table 15 are shown acute toxicity values (LD50, mg/kg) in day mice in the case of intravenously administering (once) each of the compounds of this invention in the form of preparations shown in the Preparation Examples shown in Table 16.

[3] = i.v., dose b: 20 mg/kg/d × 3 (days 1, 5, 9), 30-day observation
[4] = i.v., dose c: 40 mg/kg/d × 3 (days 1, 5, 9), 30-day observation

Question: What does the source list for `COC1C(N)C(C)OC(OC2C(Oc3cccc4c(OC(=O)Cc5ccccc5)c5c(=O)oc6ccc(C)c7c(=O)oc(c34)c5c67)OC(C)C3OC(c4ccccc4)OC32)C1O` (stereo not shown) [Compound 50]?
Answer: response vs control in vivo at 20 mg/kg/day ([1]; i.v., 30-day observation): 165%; response vs control in vivo at 40 mg/kg/day ([1]; i.v., 30-day observation): 208%; LD50 ([2]; Preparation Example 7): ≥ 40 mg/kg

Question: For `COC1C(O)C(C)OC(OC2C(Oc3cccc4c(OC(=O)c5ocnc5C)c5c(=O)oc6ccc(C)c7c(=O)oc(c34)c5c67)OC(C)C3OC(c4ccccc4)OC32)C1O` (stereo not shown) [Compound 103], which response vs control in vivo at 60 mg/kg ([1]; i.v., 30-day observation) is on record?
Answer: 236%

Question: And the response vs control in vivo at 30 mg/kg ([1]; i.v., dose j: 30 mg/kg/d × 3 (days 1, 5, 9), 30-day observation)?
Answer: 210%

Question: What about the LD50 ([2]; Preparation Example 2) of the same molecule?
Answer: ≥ 60 mg/kg

Question: Which response vs control in vivo at 60 mg/kg ([1]; i.v., 30-day observation) does the source give for `COC1C(O)C(C)OC(OC2C(Oc3cccc4c(OC(=O)c5cc6cc(OCc7ccccc7)ccc6[nH]5)c5c(=O)oc6ccc(C)c7c(=O)oc(c34)c5c67)OC(C)C3OC(c4ccccc4)OC32)C1O` (stereo not shown) [Compound 101] here?
Answer: 191%

Question: What about the LD50 ([2]; Preparation Example 2) of the same molecule?
Answer: ≥ 60 mg/kg

Question: Which response vs control in vivo at 20 mg/kg [1] does the source give for `COC1C(O)C(C)OC(OC2C(Oc3cccc4c(OC(=O)Cc5ccc6c(c5)OCO6)c5c(=O)oc6ccc(C)c7c(=O)oc(c34)c5c67)OC(C)C3OC(c4ccccc4)OC32)C1O` (stereo not shown) [Compound 29] here?
Answer: 201%

Question: And the response vs control in vivo at 40 mg/kg [1]?
Answer: 255%

Question: And the LD50 ([2]; Preparation Example 2)?
Answer: ≥ 40 mg/kg

Question: With `COC1C(N)C(C)OC(OC2C(Oc3cccc4c(OC(=O)CCC(C)=O)c5c(=O)oc6ccc(C)c7c(=O)oc(c34)c5c67)OC(C)C3OC(c4ccccc4)OC32)C1O` (stereo not shown) [Compound 48] as the molecule, how does the response vs control in vivo at 20 mg/kg [1, 3] read?
Answer: 166%

Question: What about the response vs control in vivo at 40 mg/kg [1, 4] of the same molecule?
Answer: 219%

Question: And the LD50 ([2]; Preparation Example 1)?
Answer: ≥ 40 mg/kg

Question: What does the source list for `COC1C(N)C(C)OC(OC2C(Oc3cccc4c(OC(=O)C5CC5C)c5c(=O)oc6ccc(C)c7c(=O)oc(c34)c5c67)OC(C)C3OC(c4ccccc4)OC32)C1O` (stereo not shown) [Compound 49]?
Answer: response vs control in vivo at 40 mg/kg/day ([1]; i.v., 30-day observation): 153%; LD50 ([2]; Preparation Example 6): ≥ 40 mg/kg

Question: Which results are given for `COC1C(N)C(C)OC(OC2C(Oc3cccc4c(OC(=O)c5cccc(C(F)(F)F)c5)c5c(=O)oc6ccc(C)c7c(=O)oc(c34)c5c67)OC(C)C3OC(c4ccccc4)OC32)C1O` (stereo not shown) [Compound 53]?
Answer: response vs control in vivo at 20 mg/kg [1, 3]: 131%; response vs control in vivo at 40 mg/kg [1, 4]: 165%; LD50 ([2]; Preparation Example 6): ≥ 40 mg/kg

Question: For `COC1C(N)C(C)OC(OC2C(Oc3cccc4c(OC(=O)CCCCCNC(=O)C(F)(F)F)c5c(=O)oc6ccc(C)c7c(=O)oc(c34)c5c67)OC(C)C3OC(c4ccccc4)OC32)C1O` (stereo not shown) [Compound 37, 6-O-(n-trifluoroacetyl-6-amino-n-hexanoyl)-3',4'-O-benzylidene-4"-epiamino-4"-deoxy-chartreusin hydrochloride], which response vs control in vivo at 20 mg/kg [1, 3] is on record?
Answer: 148%

Question: What about the response vs control in vivo at 40 mg/kg [1, 4] of the same molecule?
Answer: 191%

Question: And the LD50 ([2]; Preparation Example 1)?
Answer: ≥ 40 mg/kg

Question: For `COC1C(O)C(C)OC(OC2C(Oc3cccc4c(OC(=O)C5CC(=O)CC(C)(C)O5)c5c(=O)oc6ccc(C)c7c(=O)oc(c34)c5c67)OC(C)C3OC(c4ccccc4)OC32)C1O` (stereo not shown) [Compound 32], which response vs control in vivo at 20 mg/kg/day ([1]; i.v., 30-day observation) is on record?
Answer: 185%

Question: What about the response vs control in vivo at 40 mg/kg/day ([1]; i.v., 30-day observation) of the same molecule?
Answer: 213%

Question: And the LD50 ([2]; Preparation Example 2)?
Answer: ≥ 40 mg/kg

Question: With `COC1C(O)C(C)OC(OC2C(Oc3cccc4c(OC(=O)c5ccoc5)c5c(=O)oc6ccc(C)c7c(=O)oc(c34)c5c67)OC(C)C3OC(C)(C)OC32)C1O` (stereo not shown) [Compound 7] as the molecule, how does the response vs control in vivo at 40 mg/kg [1, 4] read?
Answer: 149%

Question: What about the response vs control in vivo at 80 mg/kg ([1]; i.v., dose f: 80 mg/kg/d × 3 (days 1, 5, 9), 30-day observation) of the same molecule?
Answer: 194%

Question: And the LD50 ([2]; Preparation Example 3)?
Answer: ≥ 80 mg/kg

Question: For `COC1C(N)C(C)OC(OC2C(Oc3cccc4c(OC(=O)CCN5CCCC5)c5c(=O)oc6ccc(C)c7c(=O)oc(c34)c5c67)OC(C)C3OC(c4ccccc4)OC32)C1O` (stereo not drawn) [Compound 36, 6-O-(β-1-pyrrolidinylpropionyl)-3',4'-O-benzylidene-4"-epiamino-4"-deoxy-chartreusin dihydrochloride], which response vs control in vivo at 20 mg/kg [1, 3] is on record?
Answer: 168%

Question: And the LD50 ([2]; Preparation Example 8)?
Answer: ≥ 20 mg/kg

Question: With `COC1C(O)C(C)OC(OC2C(Oc3cccc4c(OC(=O)C=Cc5c[nH]cn5)c5c(=O)oc6ccc(C)c7c(=O)oc(c34)c5c67)OC(C)C3OC(c4ccccc4)OC32)C1O` (stereo not shown) [Compound 16] as the molecule, how does the response vs control in vivo at 40 mg/kg [1, 4] read?
Answer: 148%

Question: And the LD50 ([2]; Preparation Example 2)?
Answer: ≥ 40 mg/kg

Question: For `COC1C(O)C(C)OC(OC2C(Oc3cccc4c(OC(=O)c5ccc[nH]5)c5c(=O)oc6ccc(C)c7c(=O)oc(c34)c5c67)OC(C)C3OC(c4cccc(Br)c4)OC32)C1O` (stereo not shown) [Compound 31], which response vs control in vivo at 40 mg/kg [1, 4] is on record?
Answer: 128%

Question: And the LD50 ([2]; Preparation Example 1)?
Answer: ≥ 40 mg/kg

Question: With `CNCC(C)C(=O)Oc1c2cccc(OC3OC(C)C4OC(c5ccccc5)OC4C3OC3OC(C)C(N)C(OC)C3O)c2c2oc(=O)c3c(C)ccc4oc(=O)c1c2c43` (stereo not shown) [Compound 44] as the molecule, how does the response vs control in vivo at 20 mg/kg [1, 3] read?
Answer: 138%

Question: And the response vs control in vivo at 40 mg/kg [1, 4]?
Answer: 148%

Question: What about the LD50 ([2]; Preparation Example 8) of the same molecule?
Answer: ≥ 40 mg/kg
